According to patent publication US7820817B2, “Modulators of muscarinic receptors” (Vertex Pharmaceuticals Incorporated, priority 2004, dated 2010):

Tested on: at least one muscarinic receptor, M1, M2, M3, M4
Assay: Muscarinic modulation activity (Table 3)
Assay type: cell-based
Set-up: key: +++: exhibited muscarinic modulation activity for at least one muscarinic receptor, M1, M2, M3, M4, at a concentration of less than 5 μM; ++: exhibited muscarinic modulation activity for at least one muscarinic receptor, M1, M2, M3, M4, at a concentration of between 30 μM and 5 μM; +: exhibited muscarinic modulation activity for at least one muscarinic receptor, M1, M2, M3, M4, at a concentration of greater than 30 μM; −: were not assayed or did not exhibit muscarinic modulation activity for at least one muscarinic receptor, M1, M2, M3, M4, at the concentration at which the assay was performed
Details: concentration at which modulation of at least one muscarinic receptor, M1, M2, M3, M4, was exhibited; CHO cells
Protocol: CHO cells expressing muscarinic receptors (M1 to M5) are grown as monolayers in tissue culture flasks at 37° C. in a humidified atmosphere containing 5% CO2 and passaged every 3-5 days. The growth media is Dulbecco's modified eagles medium (DMEM, Gibco Cat#12430-054), containing 25 mM Hepes and supplemented with Fetal Bovine Serum (Hyclone, cat#SH30071.03), 0.1 mM of MEM non-essential amino acids (GIBCO, Cat#11140-050), 1 mM MEM Sodium Pyruvate (GIBCO Cat#11360-070) and 100 units/ml of Penicillin G and 100 μg/ml of Streptomycin (GIBCO Cat#15140-122). The recombinant muscarinic receptor cell lines are grown under antibiotic pressure with media containing 25 μg/ml zeocin and 500 μg/ml G418 (M1-CHO), 4 μg/ml puromycin, 50 μg/ml zeocin and 2.5 μg/ml blasticidin (M2 and M4-CHO) or 50 μg/ml zeocin and 4 μg/ml puromycin (M3 and M5-CHO).
Cells are harvested at 80-90% confluence using Versene (GIBCO Cat#15040-066), collected by centrifugation and seeded 18-24 hrs prior to running the calcium assay at a density of 5,000-10,000 cells/well in […], clear-bottomed 384-well plates (BD Biocoat, poly-D-lysine, Cat#356663). The day of the experiment, the cells are washed with a plate washer (Bioteck Instruments, ELX 405) using bath1 buffer (140-mM NaCl, 4.5-mM KCl, 2-mM CaCl2, 1-mM MgCl2, 10-mM Hepes-Na, 10-mM Glucose, pH 7.4, with NaOH) containing 1 mM Probenecid. Next, the calcium dye Fluo-3 (25 μl/well of Fluo-3 AM at 4 μM, Molecular Probes F-1241, in Bath 1 buffer containing 1 mM Probenecid) is added to the 25 μl of Bath 1 remaining in each well after the plate wash and the dye is loaded at 37° C. in the tissue culture incubator for 60-90 min. The fluorescent dye is removed using the plate washer with Bath 1 containing 1 mM Probenecid, leaving 25 μl/well of this solution after the wash. Alternatively, cells can be loaded with the calcium indicator from Molecular Devices (Calcium 3 Assay Reagents, Cat #R7181) adding 5 μl of a 5× solution dye in Bath 1 containing 1 mM Probenecid (10 ml per dye flask cat#R7182 to generate a solution […]) to 20 μl of the same buffer. After loading for 60 min. the experiment can be run without having to remove the dye.
Compounds are prepared at a 2× fold concentration in a 96-well plate (round bottom, Costar Corning cat#3656), by reconstituting the pre-spotted compounds in bath 1 containing 1 mM probenecid. The final concentration DMSO is 0.5%, and the amount of DMSO is normalized across the assay plate. To determine an agonist action of the compounds on muscarinic receptors, the reconstituted compounds are added (25 μl compound/well) to the cell assay plate (containing 25 μl/well) using the multi-channel robotic system of the FLIPR 3 Instrument (Molecular Devices, Sunnyvale, Calif.). To determine a functional inhibitory action of the compounds on muscarinic receptors, the reconstituted compounds are added (25 μl compound/well) to the assay plate and pre-incubated for 15 min prior to adding 25 μl of Carbachol at 3× the EC80 for each muscarinic subtype. Alternatively, the compounds can be co-applied simultaneously with the agonist. In both assay modes, the fluorescence is recorded for 60 sec (excitation wavelength is […] and emission wavelength 540 nm) using the FLIPR 3 instrument.
The potency, efficacy and selectivity of the muscarinic compounds were evaluated by screening the compound activity across the whole family (M1 to M5 cells).
CHO cells expressing muscarinic receptors (M1 to M5) and containing a gene reporter system β-Lactamase) with transcriptional control mediated by calcium release (NFAT activation). See Zlokarnik, G; Negulescu, P. A.; Knapp, T. E.; Mere, L; Burres, N; Feng, L; Whitney, M; Roemer, K; Tsien, R. Y. Quantitation of transcription and clonal selection of single living cells with β-lactamase as reporter. Science, 1998 Jan. 2, 279(5347):84-8. The cells are grown as monolayers in tissue culture flasks at 37° C. in a humidified atmosphere containing 5% CO2 and passaged every 3-5 days. […]

For `CCOC(=O)N1C2CCC1CC(N1CCN(c3cc(C#N)ccn3)CC1)C2` (stereo not drawn) [Compound 56, 3-[4-(4-cyano-2-pyridyl)piperazin-1-yl]-8-azabicyclo[3.2.1]octane-8-carboxylic acid ethyl ester], the “ACTIVITY (muscarinic modulation activity)” value (from here on “ACTIVITY”) was “+++ (exhibited muscarinic modulation activity for at least one muscarinic receptor, M1, M2, M3, M4, at a concentration of less than 5 μM)”.

In the case of `c1ccc(N2CCN(C3CC4CCC3C4)CC2)nc1` (stereo not drawn) [Compound 65, 1-norbornan-2-yl-4-(2-pyridyl)piperazine], the “ACTIVITY” value was “++ (exhibited muscarinic modulation activity for at least one muscarinic receptor, M1, M2, M3, M4, at a concentration of between 30 μM and 5 μM)”.

In the case of `C1=CC2CC1CC2CN1CCC(n2nnc3ccccc32)CC1` (stereo not drawn) [Compound 37, 1-[1-(5-bicyclo[2.2.1]hept-2-enylmethyl)-4-piperidyl]-1H-benzotriazole], the “ACTIVITY” value was “+ (exhibited muscarinic modulation activity for at least one muscarinic receptor, M1, M2, M3, M4, at a concentration of greater than 30 μM)”.

For `N#Cc1nccnc1N1CCN(C2CC3CCC2C3)CC1` (stereo not drawn) [Compound 43, 3-(4-norbornan-2-ylpiperazin-1-yl)pyrazine-2-carbonitrile], the “ACTIVITY” value was “−”.

For `O=[N+]([O-])c1cccnc1N1CCN(C2CC3CCC2C3)CC1` (stereo not drawn) [Compound 5, 1-(3-nitro-2-pyridyl)-4-norbornan-2-yl-piperazine], the “ACTIVITY” value was “+ (exhibited muscarinic modulation activity for at least one muscarinic receptor, M1, M2, M3, M4, at a concentration of greater than 30 μM)”.

For `N#Cc1ccc(N2CCN(CC3CC4C=CC3C4)CC2)nc1` (stereo not drawn) [Compound 13, 6-[4-(5-bicyclo[2.2.1]hept-2-enylmethyl)piperazin-1-yl]nicotinonitrile], the “ACTIVITY” value was “+++ (exhibited muscarinic modulation activity for at least one muscarinic receptor, M1, M2, M3, M4, at a concentration of less than 5 μM)”.

`Cc1nccnc1N1CCN(C2CC3CCC2C3)CC1` (stereo not drawn) [Compound 63, 2-methyl-3-(4-norbornan-2-ylpiperazin-1-yl)-pyrazine] was tested, and the “ACTIVITY” value was “+ (exhibited muscarinic modulation activity for at least one muscarinic receptor, M1, M2, M3, M4, at a concentration of greater than 30 μM)”.

For `N#Cc1ccc(N2CCN(C3CC4CCC3C4)CC2)nc1` (stereo not drawn) [Compound 19, 6-(4-norbornan-2-ylpiperazin-1-yl)nicotinonitrile], the “ACTIVITY” value was “++ (exhibited muscarinic modulation activity for at least one muscarinic receptor, M1, M2, M3, M4, at a concentration of between 30 μM and 5 μM)”.

For `COc1cc(OC)nc(C2CCN(CC3CC4C=CC3C4)CC2)n1` (stereo not drawn) [Compound 4, 2-[1-(5-bicyclo[2.2.1]hept-2-enylmethyl)-4-piperidyl]-4,6-dimethoxy-pyrimidine], the “ACTIVITY” value was “+++ (exhibited muscarinic modulation activity for at least one muscarinic receptor, M1, M2, M3, M4, at a concentration of less than 5 μM)”.

`N#Cc1cccnc1N1CCN(C2CC3CCC2C3)CC1` (stereo not drawn) [Compound 32, 2-(4-norbornan-2-ylpiperazin-1-yl)nicotinonitrile] was tested, and the “ACTIVITY” value was “+ (exhibited muscarinic modulation activity for at least one muscarinic receptor, M1, M2, M3, M4, at a concentration of greater than 30 μM)”.

`c1cc(N2CCN(C3C4CC5CC(C4)CC3C5)CC2)ccn1` (stereo not drawn) [Compound 75, 1-(2-adamantyl)-4-(4-pyridyl)piperazine] was tested, and the “ACTIVITY” value was “++ (exhibited muscarinic modulation activity for at least one muscarinic receptor, M1, M2, M3, M4, at a concentration of between 30 μM and 5 μM)”.

`CCOC(=O)N1C2CCC1CC(N1CCN(c3ccc(C(F)(F)F)cn3)CC1)C2` (stereo not drawn) [Compound 28, 3-[4-[5-(trifluoromethyl)-2-pyridyl]piperazin-1-yl]-8-azabicyclo[3.2.1]octane-8-carboxylic acid ethyl ester] was tested, and the “ACTIVITY” value was “+++ (exhibited muscarinic modulation activity for at least one muscarinic receptor, M1, M2, M3, M4, at a concentration of less than 5 μM)”.

`O=[N+]([O-])c1cccnc1N1CCN(CC2CC3C=CC2C3)CC1` (stereo not drawn) [Compound 1, 1-(5-bicyclo[2.2.1]hept-2-enylmethyl)-4-(3-nitro-2-pyridyl)-piperazine] was tested, and the “ACTIVITY” value was “++ (exhibited muscarinic modulation activity for at least one muscarinic receptor, M1, M2, M3, M4, at a concentration of between 30 μM and 5 μM)”.

`N#Cc1ccc(N2CCN(CC3CC4C=CC3C4)CC2)nc1` (stereo not drawn) [Compound 34, 6-[4-(5-bicyclo[2.2.1]hept-2-enylmethyl)piperazin-1-yl]nicotinonitrile] was tested, and the “ACTIVITY” value was “+++ (exhibited muscarinic modulation activity for at least one muscarinic receptor, M1, M2, M3, M4, at a concentration of less than 5 μM)”.

With `Cc1cc(C)nc(N2CCN(C3CC4CCC3C4)CC2)n1` (stereo not drawn) [Compound 72, 4,6-dimethyl-2-(4-norbornan-2-ylpiperazin-1-yl)-pyrimidine] the “ACTIVITY” value was “−”.

In the case of `Cc1cccc(N2CCN(C3CC4CCC3C4)CC2)n1` (stereo not drawn) [Compound 77, 1-(6-methyl-2-pyridyl)-4-norbornan-2-yl-piperazine], the “ACTIVITY” value was “−”.

`CCOC(=O)N1C2CCC1CC(N1CCN(c3ccncc3S(N)(=O)=O)CC1)C2` (stereo not drawn) [Compound 49, 3-[4-(3-sulfamoyl-4-pyridyl)piperazin-1-yl]-8-azabicyclo[3.2.1]octane-8-carboxylic acid ethyl ester] was tested, and the “ACTIVITY” value was “+++ (exhibited muscarinic modulation activity for at least one muscarinic receptor, M1, M2, M3, M4, at a concentration of less than 5 μM)”.

In the case of `FC(F)(F)c1ccc(N2CCN(CC3CC4C=CC3C4)CC2)nc1` (stereo not drawn) [Compound 47, 1-(5-bicyclo[2.2.1]hept-2-enylmethyl)-4-[5-(trifluoromethyl)-2-pyridyl]-piperazine], the “ACTIVITY” value was “+ (exhibited muscarinic modulation activity for at least one muscarinic receptor, M1, M2, M3, M4, at a concentration of greater than 30 μM)”.

For `c1cc(N2CCN(C3CC4CCC3C4)CC2)ccn1` (stereo not drawn) [Compound 18, 1-norbornan-2-yl-4-(4-pyridyl)piperazine], the “ACTIVITY” value was “++ (exhibited muscarinic modulation activity for at least one muscarinic receptor, M1, M2, M3, M4, at a concentration of between 30 μM and 5 μM)”.

For `CCOC(=O)N1C2CCC1CC(N1CCN(c3nc(Cl)cc(C(F)(F)F)c3C#N)CC1)C2` (stereo not drawn) [Compound 58, 3-[4-[6-chloro-3-cyano-4-(trifluoromethyl)-2-pyridyl]piperazin-1-yl]-8-azabicyclo[3.2.1]octane-8-carboxylic acid ethyl ester], the “ACTIVITY” value was “−”.

In the case of `C1=CC2CC1CC2CN1CCN(c2ccccn2)CC1` (stereo not drawn) [Compound 48, 1-(5-bicyclo[2.2.1]hept-2-enylmethyl)-4-(2-pyridyl)piperazine], the “ACTIVITY” value was “++ (exhibited muscarinic modulation activity for at least one muscarinic receptor, M1, M2, M3, M4, at a concentration of between 30 μM and 5 μM)”.
